Experiments:
[1] = target: Chromatin remodeling regulator CECR2 (Homo sapiens, UniProt Q9BXF3)
[2] = target: Nucleosome-remodeling factor subunit BPTF (Homo sapiens, UniProt Q12830)
[3] = target: Dual specificity protein kinase CLK2 (Homo sapiens, UniProt P49760)
[4] = target: Dual specificity protein kinase CLK4 (Homo sapiens, UniProt Q9HAZ1)
[5] = target: Dual specificity protein kinase CLK1 (Homo sapiens, UniProt P49759)
CDK8/Cyclin C = CDK8/Cyclin C (Homo sapiens, UniProt P49336); assay type: protein-complex assay
Sequence of CDK8/Cyclin C (P49336 whole entry): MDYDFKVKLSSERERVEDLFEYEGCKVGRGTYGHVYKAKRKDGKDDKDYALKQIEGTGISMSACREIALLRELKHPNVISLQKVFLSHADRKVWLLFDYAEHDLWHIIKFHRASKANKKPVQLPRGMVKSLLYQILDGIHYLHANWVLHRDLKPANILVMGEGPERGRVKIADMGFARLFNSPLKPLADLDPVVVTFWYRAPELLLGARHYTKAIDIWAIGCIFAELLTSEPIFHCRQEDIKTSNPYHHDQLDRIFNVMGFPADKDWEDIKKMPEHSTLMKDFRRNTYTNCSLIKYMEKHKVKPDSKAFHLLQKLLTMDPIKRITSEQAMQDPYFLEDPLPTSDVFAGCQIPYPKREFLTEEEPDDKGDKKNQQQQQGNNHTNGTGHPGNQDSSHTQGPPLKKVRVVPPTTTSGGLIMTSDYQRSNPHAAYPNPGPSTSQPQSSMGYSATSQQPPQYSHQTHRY
Sequence of CDK8/Cyclin C (P24863 whole entry, further chain): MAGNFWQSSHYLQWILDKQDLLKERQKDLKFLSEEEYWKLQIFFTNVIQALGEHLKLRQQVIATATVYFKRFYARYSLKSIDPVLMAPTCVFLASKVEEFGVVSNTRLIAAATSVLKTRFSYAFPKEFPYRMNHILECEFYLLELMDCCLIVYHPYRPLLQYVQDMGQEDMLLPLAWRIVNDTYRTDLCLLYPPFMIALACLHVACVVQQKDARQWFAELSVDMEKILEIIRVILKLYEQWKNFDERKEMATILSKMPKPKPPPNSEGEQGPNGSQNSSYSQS

[6] = target: T1, Bromodomain-containing protein 9 (Homo sapiens, UniProt Q9H8M2)
T1 sequence (Q9H8M2 whole entry): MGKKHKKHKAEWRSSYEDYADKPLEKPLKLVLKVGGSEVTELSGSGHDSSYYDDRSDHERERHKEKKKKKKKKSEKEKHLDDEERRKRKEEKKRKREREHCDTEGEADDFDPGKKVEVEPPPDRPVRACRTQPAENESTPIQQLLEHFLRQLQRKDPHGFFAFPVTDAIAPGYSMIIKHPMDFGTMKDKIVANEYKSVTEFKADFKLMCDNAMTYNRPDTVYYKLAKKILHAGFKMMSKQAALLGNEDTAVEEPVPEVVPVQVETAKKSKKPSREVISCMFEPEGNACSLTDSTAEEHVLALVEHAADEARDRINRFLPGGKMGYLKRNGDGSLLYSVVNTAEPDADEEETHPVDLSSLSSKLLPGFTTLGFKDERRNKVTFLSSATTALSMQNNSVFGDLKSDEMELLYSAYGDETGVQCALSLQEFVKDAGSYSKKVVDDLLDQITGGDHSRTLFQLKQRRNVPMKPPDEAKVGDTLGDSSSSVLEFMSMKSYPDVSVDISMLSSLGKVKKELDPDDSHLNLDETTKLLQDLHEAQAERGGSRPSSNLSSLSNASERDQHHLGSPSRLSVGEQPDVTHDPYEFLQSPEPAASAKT

SRSF protein kinase 1 = SRSF protein kinase 1 (Homo sapiens, UniProt Q96SB4)
Sequence of SRSF protein kinase 1 (Q96SB4 whole entry): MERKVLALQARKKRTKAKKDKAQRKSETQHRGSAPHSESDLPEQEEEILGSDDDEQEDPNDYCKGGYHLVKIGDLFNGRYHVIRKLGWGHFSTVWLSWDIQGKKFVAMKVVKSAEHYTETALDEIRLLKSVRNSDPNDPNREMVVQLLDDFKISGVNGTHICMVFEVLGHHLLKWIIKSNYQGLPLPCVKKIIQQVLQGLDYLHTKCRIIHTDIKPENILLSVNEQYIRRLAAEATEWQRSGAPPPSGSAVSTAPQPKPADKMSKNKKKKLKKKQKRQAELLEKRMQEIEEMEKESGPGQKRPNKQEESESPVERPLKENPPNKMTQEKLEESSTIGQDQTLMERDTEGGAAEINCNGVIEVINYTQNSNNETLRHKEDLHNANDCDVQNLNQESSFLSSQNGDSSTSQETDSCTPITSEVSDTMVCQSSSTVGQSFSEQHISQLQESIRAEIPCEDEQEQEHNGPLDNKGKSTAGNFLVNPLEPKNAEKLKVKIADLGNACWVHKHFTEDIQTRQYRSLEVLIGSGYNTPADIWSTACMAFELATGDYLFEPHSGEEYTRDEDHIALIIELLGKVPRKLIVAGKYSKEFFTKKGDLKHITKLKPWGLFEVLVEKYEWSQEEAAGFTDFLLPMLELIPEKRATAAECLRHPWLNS

SRSF protein kinase 2 = SRSF protein kinase 2 (Homo sapiens, UniProt P78362)
Sequence of SRSF protein kinase 2 (P78362 whole entry): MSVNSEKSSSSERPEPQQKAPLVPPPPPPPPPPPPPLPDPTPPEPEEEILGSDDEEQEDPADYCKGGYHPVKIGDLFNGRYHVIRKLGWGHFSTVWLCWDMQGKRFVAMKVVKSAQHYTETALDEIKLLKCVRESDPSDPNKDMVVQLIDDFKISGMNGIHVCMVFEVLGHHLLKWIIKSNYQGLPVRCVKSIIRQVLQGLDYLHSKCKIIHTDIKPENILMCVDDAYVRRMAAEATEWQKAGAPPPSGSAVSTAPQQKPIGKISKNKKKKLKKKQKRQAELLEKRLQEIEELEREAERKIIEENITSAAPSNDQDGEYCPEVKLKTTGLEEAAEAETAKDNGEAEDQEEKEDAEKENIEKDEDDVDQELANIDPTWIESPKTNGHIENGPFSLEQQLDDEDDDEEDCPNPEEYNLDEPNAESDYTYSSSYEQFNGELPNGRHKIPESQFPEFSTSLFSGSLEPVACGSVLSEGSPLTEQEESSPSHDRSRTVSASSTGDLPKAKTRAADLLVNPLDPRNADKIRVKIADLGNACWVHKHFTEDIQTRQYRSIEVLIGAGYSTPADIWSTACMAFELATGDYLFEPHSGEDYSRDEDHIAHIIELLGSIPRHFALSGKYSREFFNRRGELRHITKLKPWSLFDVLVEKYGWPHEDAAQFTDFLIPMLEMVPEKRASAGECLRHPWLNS

[7] = target: T2, Histone-lysine N-methyltransferase NSD3 (Homo sapiens, UniProt Q9BZ95)
T2 sequence (Q9BZ95 whole entry): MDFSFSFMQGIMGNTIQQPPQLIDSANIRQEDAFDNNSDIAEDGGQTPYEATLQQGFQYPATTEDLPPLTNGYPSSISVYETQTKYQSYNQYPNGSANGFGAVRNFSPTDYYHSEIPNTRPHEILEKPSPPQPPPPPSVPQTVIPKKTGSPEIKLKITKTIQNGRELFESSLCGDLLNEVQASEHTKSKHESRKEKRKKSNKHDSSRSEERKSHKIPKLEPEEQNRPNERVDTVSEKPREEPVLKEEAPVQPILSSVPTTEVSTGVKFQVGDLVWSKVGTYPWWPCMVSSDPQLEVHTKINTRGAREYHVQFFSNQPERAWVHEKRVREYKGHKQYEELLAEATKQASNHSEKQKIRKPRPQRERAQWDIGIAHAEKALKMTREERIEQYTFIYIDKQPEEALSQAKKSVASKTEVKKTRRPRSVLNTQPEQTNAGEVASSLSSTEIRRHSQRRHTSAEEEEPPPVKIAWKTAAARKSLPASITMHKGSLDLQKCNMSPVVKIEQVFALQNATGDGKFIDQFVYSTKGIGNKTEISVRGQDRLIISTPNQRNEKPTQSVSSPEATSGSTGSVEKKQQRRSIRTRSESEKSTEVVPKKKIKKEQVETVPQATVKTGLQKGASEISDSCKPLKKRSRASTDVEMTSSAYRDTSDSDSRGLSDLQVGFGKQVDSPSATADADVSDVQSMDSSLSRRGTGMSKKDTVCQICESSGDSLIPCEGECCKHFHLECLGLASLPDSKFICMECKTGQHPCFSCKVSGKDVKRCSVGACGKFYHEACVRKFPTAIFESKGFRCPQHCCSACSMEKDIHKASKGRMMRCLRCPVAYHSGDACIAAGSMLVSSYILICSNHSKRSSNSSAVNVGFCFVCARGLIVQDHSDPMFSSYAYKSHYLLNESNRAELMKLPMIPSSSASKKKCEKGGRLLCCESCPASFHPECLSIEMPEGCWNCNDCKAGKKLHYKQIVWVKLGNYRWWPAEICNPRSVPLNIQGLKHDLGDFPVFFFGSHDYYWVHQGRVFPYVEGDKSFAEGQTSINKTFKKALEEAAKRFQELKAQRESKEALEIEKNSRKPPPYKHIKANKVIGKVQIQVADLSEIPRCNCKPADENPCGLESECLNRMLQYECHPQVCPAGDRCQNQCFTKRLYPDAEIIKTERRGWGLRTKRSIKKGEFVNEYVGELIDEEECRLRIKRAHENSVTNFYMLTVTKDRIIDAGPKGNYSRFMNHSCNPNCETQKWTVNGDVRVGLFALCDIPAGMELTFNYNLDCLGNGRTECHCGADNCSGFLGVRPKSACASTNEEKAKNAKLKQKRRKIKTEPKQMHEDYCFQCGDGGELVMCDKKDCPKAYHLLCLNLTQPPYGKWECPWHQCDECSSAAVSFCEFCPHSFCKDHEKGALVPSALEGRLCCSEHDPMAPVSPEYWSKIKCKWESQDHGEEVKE

[8] = target: Protein-arginine deiminase type-4 (Homo sapiens, UniProt Q9UM07)

Sequence of Dual specificity protein kinase CLK1 (P49759 whole entry): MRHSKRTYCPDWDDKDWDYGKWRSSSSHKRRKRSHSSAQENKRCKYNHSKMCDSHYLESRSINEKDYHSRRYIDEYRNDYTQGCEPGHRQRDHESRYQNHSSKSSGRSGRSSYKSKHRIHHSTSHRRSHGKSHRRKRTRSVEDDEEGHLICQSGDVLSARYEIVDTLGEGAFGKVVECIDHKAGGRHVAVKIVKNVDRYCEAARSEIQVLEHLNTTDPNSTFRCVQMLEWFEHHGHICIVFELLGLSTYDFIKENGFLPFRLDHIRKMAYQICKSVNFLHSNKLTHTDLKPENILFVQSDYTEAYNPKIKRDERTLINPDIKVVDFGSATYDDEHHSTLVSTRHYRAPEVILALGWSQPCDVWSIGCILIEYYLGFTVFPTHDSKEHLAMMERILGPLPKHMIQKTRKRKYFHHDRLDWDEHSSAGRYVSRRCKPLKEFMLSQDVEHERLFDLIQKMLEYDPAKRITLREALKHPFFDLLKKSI
Sequence of Chromatin remodeling regulator CECR2 (Q9BXF3 whole entry): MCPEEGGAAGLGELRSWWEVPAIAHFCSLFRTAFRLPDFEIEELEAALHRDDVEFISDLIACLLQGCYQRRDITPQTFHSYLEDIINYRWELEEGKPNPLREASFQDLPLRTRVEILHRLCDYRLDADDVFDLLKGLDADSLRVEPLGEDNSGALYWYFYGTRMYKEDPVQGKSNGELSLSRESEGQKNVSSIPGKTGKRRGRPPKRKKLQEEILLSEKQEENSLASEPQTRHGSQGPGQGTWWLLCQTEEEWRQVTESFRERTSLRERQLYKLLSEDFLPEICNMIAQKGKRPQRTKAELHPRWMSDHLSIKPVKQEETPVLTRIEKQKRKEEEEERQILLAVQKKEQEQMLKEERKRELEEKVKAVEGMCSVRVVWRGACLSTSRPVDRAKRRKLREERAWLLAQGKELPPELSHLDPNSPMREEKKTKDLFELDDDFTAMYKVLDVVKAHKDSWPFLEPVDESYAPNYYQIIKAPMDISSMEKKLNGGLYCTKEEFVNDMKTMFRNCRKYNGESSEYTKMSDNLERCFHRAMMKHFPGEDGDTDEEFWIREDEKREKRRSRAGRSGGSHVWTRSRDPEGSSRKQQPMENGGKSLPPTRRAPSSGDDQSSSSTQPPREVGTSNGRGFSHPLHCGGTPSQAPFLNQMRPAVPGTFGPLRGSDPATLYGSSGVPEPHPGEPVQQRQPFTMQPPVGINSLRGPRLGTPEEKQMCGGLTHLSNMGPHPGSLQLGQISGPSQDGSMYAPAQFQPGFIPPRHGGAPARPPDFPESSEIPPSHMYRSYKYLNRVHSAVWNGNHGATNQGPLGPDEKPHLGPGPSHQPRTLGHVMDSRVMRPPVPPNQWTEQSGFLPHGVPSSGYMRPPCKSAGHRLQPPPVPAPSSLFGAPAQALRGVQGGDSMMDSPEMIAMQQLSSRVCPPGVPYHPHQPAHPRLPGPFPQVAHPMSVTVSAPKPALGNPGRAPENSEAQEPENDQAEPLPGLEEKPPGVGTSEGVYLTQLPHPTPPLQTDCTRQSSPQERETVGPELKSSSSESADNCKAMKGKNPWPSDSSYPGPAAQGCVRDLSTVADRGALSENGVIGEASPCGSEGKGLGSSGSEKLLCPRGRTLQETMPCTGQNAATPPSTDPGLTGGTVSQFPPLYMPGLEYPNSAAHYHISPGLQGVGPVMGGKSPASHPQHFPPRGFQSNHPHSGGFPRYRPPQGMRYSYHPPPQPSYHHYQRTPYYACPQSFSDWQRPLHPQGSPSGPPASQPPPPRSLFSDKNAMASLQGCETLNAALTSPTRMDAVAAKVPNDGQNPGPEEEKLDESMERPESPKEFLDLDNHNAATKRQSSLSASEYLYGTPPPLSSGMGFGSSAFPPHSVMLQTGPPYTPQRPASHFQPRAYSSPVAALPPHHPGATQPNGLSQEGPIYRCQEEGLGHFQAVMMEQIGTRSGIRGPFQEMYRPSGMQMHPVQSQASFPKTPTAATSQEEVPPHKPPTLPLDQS
Sequence of Dual specificity protein kinase CLK2 (P49760 whole entry): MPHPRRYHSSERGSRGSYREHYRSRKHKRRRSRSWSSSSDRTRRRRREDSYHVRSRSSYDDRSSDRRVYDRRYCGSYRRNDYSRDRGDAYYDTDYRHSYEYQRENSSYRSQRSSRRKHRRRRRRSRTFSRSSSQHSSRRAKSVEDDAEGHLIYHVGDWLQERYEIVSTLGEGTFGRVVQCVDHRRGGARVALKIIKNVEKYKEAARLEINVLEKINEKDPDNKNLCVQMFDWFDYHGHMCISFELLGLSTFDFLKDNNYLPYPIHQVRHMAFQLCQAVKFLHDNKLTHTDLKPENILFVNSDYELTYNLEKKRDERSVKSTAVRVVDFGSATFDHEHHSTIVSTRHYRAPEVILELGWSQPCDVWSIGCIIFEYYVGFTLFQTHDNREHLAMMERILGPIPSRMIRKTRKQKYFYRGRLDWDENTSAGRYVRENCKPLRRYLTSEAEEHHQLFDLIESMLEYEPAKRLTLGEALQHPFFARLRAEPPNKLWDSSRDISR
Sequence of Dual specificity protein kinase CLK4 (Q9HAZ1 whole entry): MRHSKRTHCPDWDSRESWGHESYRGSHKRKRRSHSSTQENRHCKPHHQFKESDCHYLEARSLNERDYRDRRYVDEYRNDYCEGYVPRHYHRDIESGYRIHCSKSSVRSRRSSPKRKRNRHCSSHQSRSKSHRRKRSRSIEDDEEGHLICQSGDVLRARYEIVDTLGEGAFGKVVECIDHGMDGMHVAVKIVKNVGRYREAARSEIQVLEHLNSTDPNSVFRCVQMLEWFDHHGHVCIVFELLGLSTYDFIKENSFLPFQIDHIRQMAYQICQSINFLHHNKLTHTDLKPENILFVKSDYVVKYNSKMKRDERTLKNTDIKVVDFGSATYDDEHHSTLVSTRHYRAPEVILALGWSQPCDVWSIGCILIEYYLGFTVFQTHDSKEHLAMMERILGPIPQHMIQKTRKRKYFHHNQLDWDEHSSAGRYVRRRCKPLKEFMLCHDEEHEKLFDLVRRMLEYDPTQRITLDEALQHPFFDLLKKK

SMILES: CN(C)CCCOc1ccc(-c2cc(NCCCn3cccn3)nc(S(C)(=O)=O)n2)cc1
- IC50 [1]: 30.3 µM
- IC50 [2]: 30.3 µM

SMILES: COc1cc(Nc2nc(C)cc(-c3cnn4nc(OC)ccc34)n2)cc(C(F)(F)F)c1
- IC50 [3]: > 10 µM
- IC50 [4]: > 10 µM
- IC50 [5]: > 10 µM

SMILES: CN(C)C(=O)Cn1cc(-c2ccc(-c3nnc4ccccn34)cc2)cn1
- IC50 (CDK8/Cyclin C): 0.671 µM

SMILES: CC(=O)c1cc(-c2ccccc2OCC2CC2)c2ncccn12
- Kd [6]: > 20 µM

SMILES: CN(c1ncccc1CNc1ccnc(-c2cc3cc(Cl)ccc3[nH]2)n1)S(C)(=O)=O
- IC50 (SRSF protein kinase 1): > 10 µM
- IC50 (SRSF protein kinase 2): > 10 µM

SMILES: Cc1cc(CN)cc(C)c1-c1ncn(C)c1-c1cncn1C
- IC50 [7]: 120 µM

SMILES: CCn1c(-c2nc3cc(C(=O)N4CCCC(N)C4)ccc3n2C)cc2ccccc21 (stereo unspecified)
- IC50 [8]: > 100 µM
